{"source": "ChEMBL document CHEMBL4813950", "about": "“Comparing the efficacy and selectivity of Ck2 inhibitors. A phosphoproteomics approach” (Eur J Med Chem, 2021)", "key": {"[1]": {"target": "Survival motor neuron protein (Mus musculus) (UniProt P97801)", "experiment": "Inhibition of survival motor neuron protein in mouse C2C12 cells assessed as reduction in phospho-sites occupancy at 4 uM after 5 hrs by SILAC based LC-MS/MS analysis relative to control", "assay_type": "cell-based"}, "[2]": {"target": "Host cell factor 1 (Mus musculus) (UniProt Q61191)", "experiment": "Inhibition of host cell factor 1 in mouse C2C12 cells assessed as reduction in phospho-sites occupancy at 4 uM after 5 hrs by SILAC based LC-MS/MS analysis relative to control"}, "[3]": {"target": "Bcl-2-associated transcription factor 1 (Mus musculus) (UniProt Q8K019)", "experiment": "Inhibition of Bcl-2-associated transcription factor 1 in mouse C2C12 cells assessed as reduction in phospho-sites occupancy at 4 uM after 5 hrs by SILAC based LC-MS/MS analysis relative to control", "assay_type": "cell-based"}, "[4]": {"target": "DNA topoisomerase 2-beta (Mus musculus) (UniProt Q64511)", "experiment": "Inhibition of DNA topoisomerase 2-beta in mouse C2C12 cells assessed as reduction in phospho-sites occupancy at 4 uM after 5 hrs by SILAC based LC-MS/MS analysis relative to control", "assay_type": "cell-based"}, "[5]": {"target": "Dual E2 ubiquitin-conjugating enzyme/E3 ubiquitin-protein ligase BIRC6 (Mus musculus) (UniProt O88738)", "experiment": "Inhibition of Birc6 in mouse C2C12 cells assessed as reduction in phospho-sites occupancy at 4 uM after 5 hrs by SILAC based LC-MS/MS analysis relative to control", "assay_type": "cell-based"}, "[6]": {"target": "SWI/SNF-related matrix-associated actin-dependent regulator of chromatin subfamily A containing DEAD/H box 1 (Mus musculus) (UniProt Q04692)", "experiment": "Inhibition of Smarcad1 in mouse C2C12 cells assessed as reduction in phospho-sites occupancy at 4 uM after 5 hrs by SILAC based LC-MS/MS analysis relative to control", "assay_type": "cell-based"}, "[7]": {"target": "Autophagy-related protein 9A (Mus musculus) (UniProt Q68FE2)", "experiment": "Inhibition of Atg9a in mouse C2C12 cells assessed as reduction in phospho-sites occupancy at 4 uM after 5 hrs by SILAC based LC-MS/MS analysis relative to control", "assay_type": "cell-based"}, "[8]": {"target": "Chaperone Ric-8A (Mus musculus) (UniProt Q3TIR3)", "experiment": "Inhibition of Ric8a in mouse C2C12 cells assessed as reduction in phospho-sites occupancy at 4 uM after 5 hrs by SILAC based LC-MS/MS analysis relative to control", "assay_type": "cell-based"}, "[9]": {"target": "Serine/threonine-protein kinase PAK 1 (Mus musculus) (UniProt O88643)", "experiment": "Inhibition of Pak1 in mouse C2C12 cells assessed as reduction in phospho-sites occupancy at 4 uM after 5 hrs by SILAC based LC-MS/MS analysis relative to control", "assay_type": "cell-based"}, "Kinectin (Mus musculus)": {"target": "Kinectin (Mus musculus) (UniProt Q61595)", "experiment": "Inhibition of Ktn1 in mouse C2C12 cells assessed as reduction in phospho-sites occupancy at 4 uM after 5 hrs by SILAC based LC-MS/MS analysis relative to control", "assay_type": "cell-based"}, "[10]": {"target": "DNA replication licensing factor MCM2 (Mus musculus) (UniProt P97310)", "experiment": "Inhibition of Mcm2 in mouse C2C12 cells assessed as reduction in phospho-sites occupancy at 4 uM after 5 hrs by SILAC based LC-MS/MS analysis relative to control", "assay_type": "cell-based"}, "[11]": {"target": "EH domain-containing protein 2 (Mus musculus) (UniProt Q8BH64)", "experiment": "Inhibition of Ehd2 in mouse C2C12 cells assessed as reduction in phospho-sites occupancy at 4 uM after 5 hrs by SILAC based LC-MS/MS analysis relative to control", "assay_type": "cell-based"}, "[12]": {"target": "E3 ubiquitin-protein ligase Praja-1 (Mus musculus) (UniProt O55176)", "experiment": "Inhibition of Pja1 in mouse C2C12 cells assessed as reduction in phospho-sites occupancy at 4 uM after 5 hrs by SILAC based LC-MS/MS analysis relative to control", "assay_type": "cell-based"}, "[13]": {"target": "Rho GTPase-activating protein 35 (Mus musculus) (UniProt Q91YM2)", "experiment": "Inhibition of Arhgap35 in mouse C2C12 cells assessed as reduction in phospho-sites occupancy at 4 uM after 5 hrs by SILAC based LC-MS/MS analysis relative to control", "assay_type": "cell-based"}, "[14]": {"target": "Coiled-coil domain-containing protein 43 (Mus musculus) (UniProt Q9CR29)", "experiment": "Inhibition of Ccdc43 in mouse C2C12 cells assessed as reduction in phospho-sites occupancy at 4 uM after 5 hrs by SILAC based LC-MS/MS analysis relative to control", "assay_type": "cell-based"}, "[15]": {"target": "Fermitin family homolog 2 (Mus musculus) (UniProt Q8CIB5)", "experiment": "Inhibition of Fermt2 in mouse C2C12 cells assessed as reduction in phospho-sites occupancy at 4 uM after 5 hrs by SILAC based LC-MS/MS analysis relative to control", "assay_type": "cell-based"}, "[16]": {"target": "182 kDa tankyrase-1-binding protein (Mus musculus) (UniProt P58871)", "experiment": "Inhibition of tankyrase-1-binding protein in mouse C2C12 cells assessed as reduction in phospho-sites occupancy at 4 uM after 5 hrs by SILAC based LC-MS/MS analysis relative to control", "assay_type": "cell-based"}, "[17]": {"target": "Desmoyokin (Mus musculus) (UniProt Q61484)", "experiment": "Inhibition of AHNAK in mouse C2C12 cells assessed as reduction in phospho-sites occupancy at 4 uM after 5 hrs by SILAC based LC-MS/MS analysis relative to control", "assay_type": "cell-based"}, "[18]": {"target": "1-phosphatidylinositol 4,5-bisphosphate phosphodiesterase delta-3 (Mus musculus) (UniProt Q8K2J0)", "experiment": "Inhibition of Plcd3 in mouse C2C12 cells assessed as reduction in phospho-sites occupancy at 4 uM after 5 hrs by SILAC based LC-MS/MS analysis relative to control", "assay_type": "cell-based"}, "[19]": {"target": "Importin subunit alpha-4 (Mus musculus) (UniProt O35344)", "experiment": "Inhibition of Kpna3 in mouse C2C12 cells assessed as reduction in phospho-sites occupancy at 4 uM after 5 hrs by SILAC based LC-MS/MS analysis relative to control", "assay_type": "cell-based"}, "[20]": {"target": "Unconventional myosin-XVIIIa (Mus musculus) (UniProt Q9JMH9)", "experiment": "Inhibition of Unconventional myosin-18a in mouse C2C12 cells assessed as reduction in phospho-sites occupancy at 4 uM after 5 hrs by SILAC based LC-MS/MS analysis relative to control", "assay_type": "cell-based"}, "[21]": {"target": "E3 ubiquitin-protein ligase NEDD4 (Mus musculus) (UniProt P46935)", "experiment": "Inhibition of Nedd4 in mouse C2C12 cells assessed as reduction in phospho-sites occupancy at 4 uM after 5 hrs by SILAC based LC-MS/MS analysis relative to control", "assay_type": "cell-based"}, "[22]": {"target": "T1, Casein kinase 2 (Mus musculus) (UniProt Q60737+P67871+O54833+Q8CH19)", "experiment": "Inhibition of CK2 in mouse C2C12 cells assessed as reduction in Akt phosphorylation at S129 residues at 1 to 4 uM by Western blot analysis", "assay_type": "cell-based", "settings": "dose 1-4 µM"}, "[23]": {"target": "T1, Casein kinase 2 (Mus musculus)", "experiment": "Inhibition of CK2 in mouse C2C12 cells assessed as reduction in CDC37 phosphorylation at S13 residues at 1 to 4 uM by Western blot analysis", "assay_type": "cell-based", "settings": "dose 1-4 µM"}, "[24]": {"test_system": "Golgi-specific brefeldin A-resistance guanine nucleotide exchange factor 1 (Mus musculus)", "experiment": "Inhibition of Gbf1 in mouse C2C12 cells assessed as reduction in phospho-sites occupancy at 4 uM after 5 hrs by SILAC based LC-MS/MS analysis relative to control"}}, "note": "The source made the active and inactive calls. No cut-off for these calls is given here."}
{"smiles": "COc1cc(/C=N/n2c(SC)nnc2-c2ccccc2)c(Br)cc1O", "values": [{"measurement": "fold change (FC)", "setting": "[1]", "result": 1.52}, {"measurement": "fold change (FC)", "setting": "[2]", "result": 1.56}, {"measurement": "fold change (FC)", "setting": "[3]", "result": 1.58}, {"measurement": "fold change (FC)", "setting": "[4]", "result": 1.6}, {"measurement": "fold change (FC)", "setting": "[5]", "result": 1.62}, {"measurement": "fold change (FC)", "setting": "[6]", "result": 1.64}, {"measurement": "fold change (FC)", "setting": "[7]", "result": 1.8}, {"measurement": "fold change (FC)", "setting": "[8]", "result": 1.93}, {"measurement": "fold change (FC)", "setting": "[9]", "result": 1.96}, {"measurement": "fold change (FC)", "setting": "Kinectin (Mus musculus)", "result": 1.98}, {"measurement": "fold change (FC)", "setting": "[10]", "result": 2.12}, {"measurement": "fold change (FC)", "setting": "[11]", "result": 2.18}, {"measurement": "fold change (FC)", "setting": "[12]", "result": 2.53}, {"measurement": "fold change (FC)", "setting": "[13]", "result": 2.58}, {"measurement": "fold change (FC)", "setting": "[14]", "result": 2.68}, {"measurement": "fold change (FC)", "setting": "[15]", "result": 3.05}, {"measurement": "fold change (FC)", "setting": "[16]", "result": 3.06}, {"measurement": "fold change (FC)", "setting": "[17]", "result": 3.22}, {"measurement": "fold change (FC)", "setting": "[18]", "result": 3.31}, {"measurement": "fold change (FC)", "setting": "[19]", "result": 3.44}, {"measurement": "fold change (FC)", "setting": "[20]", "result": 5.23}, {"measurement": "fold change (FC)", "setting": "[21]", "result": 5.83}, {"measurement": "inhibition", "setting": "[22]", "result": "Active"}, {"measurement": "inhibition", "setting": "[23]", "result": "Active"}, {"measurement": "fold change (FC)", "setting": "[24]", "result": 2.55}]}
